The target of the experiment is T1, DT-Bgl (Anoxybacillus gonensis, UniProt M5QUM2).
T1 construct: full-length ORF, 453 residues (no signal peptide), pET-28a BamHI/XhoI, Ni-NTA purified (His tag, removal not mentioned), E. coli BL21(DE3), 53 kDa on SDS-PAGE
In words: HPLC of cellobiose hydrolysis with added glucose. Type of experiment: biochemical. Conditions: 400000 µM; substrate cellobiose (1% w/v in substrate assay), 100 mM glycine-NaOH pH 8.5, 60 °C; product inhibition.

On to `OC[C@H]1OC(O)[C@H](O)[C@@H](O)[C@@H]1O` (stereo partly shown) [glucose], for which the “% relative activity in 0.4 M glucose” value is 54%.

Source of the values: publication PMC4994278, “Characterization of a glucose-tolerant β-glucosidase from Anoxybacillus sp. DT3-1” (Biotechnology for Biofuels, 2016).
